In patent US12285431B2, “Treatment of Rb-negative tumors using topoisomerase inhibitors in combination with cyclin dependent kinase 4/6 inhibitors” (G1 Therapeutics, Inc., priority 2014, dated 2025):
“Also recorded” adds a separate entry of the source.

Experiments:
CDK6/CycD3 = CDK6/CycD3 (Homo sapiens, UniProt Q00534); test: CDK6/CycD3 kinase assay; settings: read-out: CDK6/CycD3 IC50; Table 3
[1] = Mouse pharmacokinetics (oral gavage / intravenous); type: in vivo, mice; settings: for AUC 0-inf (uM * h) i.v.: 10 mg/kg intravenous injection; for AUC (uM * h) p.o. / Cmax / Tmax (h) p.o. / t1/2 (h) p.o.: 30 mg/kg oral gavage; for t1/2 (h) p.o.: 30 mg/kg
[2] = tested on: ZR-75-1 (breast ductal carcinoma, Rb-positive); test: Cellular proliferation assay (CellTiter-Glo), ZR-75-1; type: cell-based; settings: Homo sapiens, ZR-75-1, 144 h, cell viability after six days, read-out: ZR75-1 Cellular EC50
Protocol: (§1) Further cellular proliferation assays were conducted using the following cancer cell lines: MCF7 (breast adenocarcinoma—Rb-positive), ZR-75-1 (breast ductal carcinoma—Rb-positive), H69 (human small cell lung cancer—Rb-negative) cells, or A2058 (human metastatic melanoma cells—Rb-negative). These cells were seeded in Costar (Tewksbury, Massachusetts) 3093 96 well tissue culture treated white walled/clear bottom plates. Cells were treated with the compounds of Table 1 as nine point dose response dilution series from 10 uM to 1 nM. Cells were exposed to compounds and then cell viability was determined after either four (H69) or six (MCF7, ZR75-1, A2058) days as indicated using the CellTiter-Glo® luminescent cell viability assay (CTG; Promega, Madison, Wisconsin, United States of America) following the manufacturer's recommendations. Plates were read on BioTek (Winooski, Vermont) Syngergy2 multi-mode plate reader. The Relative Light Units (RLU) were plotted as a result of variable molar concentration and data was analyzed using Graphpad (LaJolla, California) Prism 5 statistical software to determine the EC50 for each compound.

HS68 cells = test: G1 arrest (cellular G1 and S-phase) assay, propidium iodide flow cytometry; type: cell-based, human; settings: Homo sapiens, Hs68, HS68 cells
Protocol: HS68 cells (human skin fibroblast cell line (Rb-positive)) were stained with propidium iodide staining solution and run on Dako Cyan Flow Cytometer. The fraction of cells in G0-G1 DNA cell cycle versus the fraction in S-phase DNA cell cycle was determined using FlowJo 7.2.2 analysis.
The compounds listed in Table 1 were tested for their ability to arrest HS68 cells at the G1 phase of the cell cycle.

[3] = tested on: MCF7 (breast adenocarcinoma, Rb-positive); test: Cellular proliferation assay (CellTiter-Glo), MCF7; type: cell-based; settings: Homo sapiens, MCF7, 144 h, cell viability after six days
Protocol: as §1

[4] = tested on: A2058 (human metastatic melanoma cells, Rb-negative); test: Cellular proliferation assay (CellTiter-Glo), A2058; type: cell-based; settings: A2058, 144 h, cell viability after six days
Protocol: as §1

[5] = tested on: H69 (human small cell lung cancer, Rb-negative) cells; test: Cellular proliferation assay (CellTiter-Glo), H69; type: cell-based; settings: NCI-H69, 96 h, cell viability after four days
Protocol: as §1

[6] = tested on: Rb phosphorylation (Ser780, Ser807/811) in WM2664 cells; test: Rb phosphorylation western blot, WM2664; type: cell-based; settings: WM2664, 300 nM, 4, 8, 16 and 24 hours
Protocol: (§2) The CDK4/6-cyclin D complex is essential for progression from G1 to the S-phase of the DNA cell cycle. This complex phosphorylates the retinoblastoma tumor suppressor protein (Rb). […] Samples were lysed and protein was assayed by western blot analysis. Rb phosphorylation was measured at two sites targeted by the CDK4/6-cyclin D complex, Ser780 and Ser807/811 using species specific antibodies.

[7] = tested on: NCI-H69 SCLC xenograft (Rb-negative); test: NCI-H69 SCLC xenograft model, Example 156; type: in vivo, mice; settings: Compound T 100 mg/kg po qd×5×4; carboplatin 40 mg/kg and etoposide 4 mg/kg ip twice per week for 3 weeks; topotecan 0.6 mg/kg ip once daily for 5 days; FIG. 11
[8] = tested on: 456 (395 non-mutant) kinases; test: DiscoveRx KINOMEscan profiling; type: binding; settings: single concentration 1000 nM
[9] = tested on: WM2664 cells (Rb-positive); test: Cell cycle arrest screen, WM2664; type: cell-based; settings: 24 hours
From the text: (§3) To test the ability of the disclosed CDK4/6 inhibitors to induce a clean G1-arrest, a cell based screening method was used consisting of two Rb-positive (tHS68 and WM2664) and one Rb-negative (A2058) cell line. […] At the conclusion of the experiment, cells were harvested, fixed, and stained with propidium iodide (a DNA intercalator), which fluoresces strongly red (emission maximum 637 nm) when excited by 488 nm light. Samples were run on Dako Cyan flow cytometer and >10,000 events were collected for each sample. Data were analyzed using FlowJo 2.2 software developed by TreeStar, Inc.

[10] = tested on: Rb phosphorylation (Ser780, Ser807/811) in tHS68 cells; test: Rb phosphorylation western blot, tHS68; type: cell-based; settings: tHS68, 300 nM, 4, 8, 16 and 24 hours
Protocol: as §2

[11] = tested on: Rb phosphorylation (Ser780, Ser807/811) in A2058 cells; test: Rb phosphorylation western blot, A2058; type: cell-based; settings: A2058, 300 nM, 4, 8, 16 and 24 hours
Protocol: as §2

[12] = tested on: A2058 cells (Rb-negative); test: Cell cycle arrest screen, A2058; type: cell-based; settings: 24 hours
From the text: as §3

[13] = tested on: tHS68 cells (Rb-positive); test: Cell cycle arrest screen, tHS68; type: cell-based
From the text: as §3

[14] = tested on: NCI-H69 SCLC xenograft (Rb-negative); type: in vivo
From the text: An Rb-negative model of small cell lung cancer was used in the following example. Briefly, xenografts of National Cancer Institute (NCI) […] cells were grafted onto the mice (Athymic Nude (Crl:NU(NCr)-Foxn1^nu); 6-12 week old females) using the South Texas Accelerated Research Therapeutics (START) Cell-Based Xenograft (START-CBX) tumor model. H69 cells are human small cell lung cancer cells and are Rb-negative.
Data collected from the efficacy study included animal weights, observations and tumor dimensions. This information was used to determine agent tolerability based on weight change and gross physiologic changes and anticancer activity based on tumor growth delay or regression. The designated endpoint for this study was an individual tumor volume of 1 cm^3 or 60 days following treatment initiation.
Tumor fragments from NCI-H69 were harvested from host animals and implanted into immune-deficient mice and the study initiated at a mean tumor volume of approximately 150-250 mm^3.
Additional details of the study are outlined in Table 6 below. […] Tumor size was examined twice per week and the endpoint for this study was Day 59.

[15] = Group 2: Compound T 100 mg/kg PO qdx5x4 and topotecan vehicle

Chain of CDK6/CycD3 (Q00534 whole entry, species assumed): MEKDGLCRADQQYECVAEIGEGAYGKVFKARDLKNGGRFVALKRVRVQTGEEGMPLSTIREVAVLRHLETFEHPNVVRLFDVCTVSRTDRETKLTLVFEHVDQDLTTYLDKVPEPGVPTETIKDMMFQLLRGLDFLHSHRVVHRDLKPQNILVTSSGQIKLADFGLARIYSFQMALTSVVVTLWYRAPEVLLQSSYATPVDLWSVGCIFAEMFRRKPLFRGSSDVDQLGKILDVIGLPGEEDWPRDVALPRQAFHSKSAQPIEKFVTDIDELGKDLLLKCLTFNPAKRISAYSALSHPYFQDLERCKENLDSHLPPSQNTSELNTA
Chain of CDK6/CycD3 (P30281 whole entry partner, species assumed): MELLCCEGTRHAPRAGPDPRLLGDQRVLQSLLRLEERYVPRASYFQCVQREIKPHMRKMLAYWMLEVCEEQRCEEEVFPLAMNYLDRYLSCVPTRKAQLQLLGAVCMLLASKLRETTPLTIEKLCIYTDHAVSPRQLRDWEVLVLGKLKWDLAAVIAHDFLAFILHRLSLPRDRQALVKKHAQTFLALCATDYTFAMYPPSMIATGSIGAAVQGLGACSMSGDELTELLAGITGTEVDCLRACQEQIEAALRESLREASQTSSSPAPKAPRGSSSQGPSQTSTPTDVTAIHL

CC(C)N1CCN(c2ccc(Nc3ncc4cc5n(c4n3)C3(CCCCC3)CNC5=O)nc2)CC1 [Compound GG]
IC50 (CDK6/CycD3): 4.7 nM | AUC 0-inf (uM * h) i.v. [1]: 1.1 µM·h | AUC (uM * h) p.o. [1]: 1.9 µM·h | Cmax [1]: 1.9 µM | Tmax (h) p.o. [1]: 1 h | t1/2 (h) p.o. [1]: 3.5 h | EC50 [2]: 62 nM | EC50 (HS68 cells): 80 nM | EC50 [3]: 52 nM | EC50 [4]: 2690 nM | EC50 [5]: 2920 nM

CN1CCN(c2ccc(Nc3ncc4cc5n(c4n3)C3(CCCCC3)CNC5=O)nc2)CC1 [Compound T]
AUC 0-inf (uM * h) i.v. [1]: 1.3 µM·h | AUC (uM * h) p.o. [1]: 2.9 µM·h | Cmax [1]: 2.5 µM | Tmax (h) p.o. [1]: 1 h | t1/2 (h) p.o. [1]: 5 h | Rb phosphorylation at Ser780 and Ser807/811 (in words) [6]: blocks Rb phosphorylation in Rb-positive cell lines by 16 hours post exposure; also recorded: reduced Rb-phosphorylation starting 16 hours after treatment | EC50 [2]: 36 nM | effect on tumor growth / tumor size (in words) [7]: very little effect of slowing tumor growth | EC50 (HS68 cells): 100 nM | number of 395 non-mutant kinases inhibited, inhibitory threshold 65% [8]: 92 | number of 395 non-mutant kinases inhibited, inhibitory threshold 90% [8]: 31 | number of 395 non-mutant kinases inhibited, inhibitory threshold 99% [8]: 6 | share of 395 non-mutant kinases inhibited, inhibitory threshold 65% [8]: 23.3% | share of 395 non-mutant kinases inhibited, inhibitory threshold 90% [8]: 7.8% | share of 395 non-mutant kinases inhibited, inhibitory threshold 99% [8]: 1.5% | cell cycle distribution at 300 nM (in words) [9]: loss of the S-phase peak | Rb phosphorylation at Ser780 and Ser807/811 (in words) [10]: blocks Rb phosphorylation in Rb-positive cell lines by 16 hours post exposure; also recorded: reduced Rb-phosphorylation starting 16 hours after treatment | EC50 [3]: 49 nM | Rb phosphorylation at Ser780 and Ser807/811 (in words) [11]: but not in the Rb-negative cell line (A2058) | EC50 [4]: > 3000 nM | cell cycle distribution at 300 nM (in words) [12]: does not cause a loss of the S-phase peak | EC50 [5]: > 3000 nM | cell cycle distribution at 300 nM (in words) ([13]; 300 nM, 24 hours): loss of the S-phase peak | EC50 ([13]; 24 hours treatment, read-out: G1 cell cycle arrest EC50): 80 nM | S-phase fraction at the highest concentration shown ([13]; 24 hours, 28% at baseline): 6% | cell cycle distribution, increasing concentrations (in words) ([13]; 24 hours, FIG. 9A): robust G1 cell cycle arrest; also recorded: clean G1 arrest accompanied by a corresponding decrease in the number of cells in S-phase | activity toward NCI-H69 xenografts / tumor volume (in words) ([14]; Compound T alone 100 mg/kg, topotecan 0.6 mg/kg, combination with each Compound T dose (100, 50 or 10 mg/kg), FIG. 16): inactive | tolerability: weight loss or toxicity (in words) ([14]; Compound T alone or thirty minutes before topotecan, FIG. 13): well tolerated with no additive weight loss or toxicity | CR (tumor volume < 15 mm^3) [14, 15]: 0 | LTS (individual tumor volume < volume endpoint at study time endpoint) [14, 15]: 0 | MTTE ± SD (timepoint in days to reach designated tumor volume or time endpoint) [14, 15]: 14 ± 4 days | PR (%) (tumor volume ≥ 50% regression versus Day 0) [14, 15]: 0% | T-C (difference in days between MTTE of treatment and control groups) [14, 15]: <0 days | TFS (complete responder at study endpoint) [14, 15]: 0
